{"source": "patent US20170158636A1", "about": "“FUNCTIONALISED AND SUBSTITUTED CARBAZOLES AS ANTI-CANCER AGENTS” (Novogen Ltd., priority 2014, published 2017)", "key": {"[1]": {"system": "actin cytoskeleton in SK-N-SH neuroblastoma cells", "assay": "Microfilament disruption assay (phalloidin staining, linear feature quantitation)", "assay_type": "cell-based", "settings": "0-40 μM, 24 hours post treatment", "description": "FIG. 1: Imaging and quantitation of actin filaments in SK-N-SH neuroblastoma cells treated with compound (A) 1007, (B) 1013 and (C) 1016. Cells were stained with 488-Atto-Phallodin and DAPI to visualize the actin filament bundles and the nucleus, respectively. Shown in the top panel is a representative gray scale immunofluorescent image from control (vehicle alone), 5 μM and 10 μM treated cells. […] The coloured lines indicate the detected actin filaments. Also shown is the quantitation of cell number, filament number/cell and filament number/cell area (μM^2). Statistical analysis was performed using a one way ANNOVA-multiple comparison where each drug treated group was compared to the control. ****p<0.0001, […].\nThe ability of compounds 1007, 1013 and 1016 to disrupt the actin cytoskeleton was assessed in vitro using the microfilament disruption assay (FIG. 1).\nBriefly, SK-N-SH neuroblastoma cells were seeded at 1800 cells/well in a 384 Perkin Elmer High Content Imaging “Cell Carrier” plate and left to plate down 24 hours prior to treatment. Cells were then treated with 0-40 μM of the test compounds (1:2 serial dilution in a 10 point dose response). 24 hours post treatment, cells were fixed with 4% w/v paraformaldehyde (PBS), permeabilized with Triton-X-100 and stained with 488-Atto-Phallodin and DAPI to visualize the actin filament bundles and the nucleus respectively. Single plane images were obtained on the Perkin Elmer Opera confocal microscope using a 20× objective. Twelve fields of view per condition (representing approximately 300-800 cells) were imaged. Images were then exported and changes in the organization and numbers of actin filaments within the cell were quantitated using a linear feature detection algorithm developed by CSIRO (Vindin et al. 2014). This algorithm detects the “ridge lines” or “peaks” in local pixel intensity in the cell image. It is these “ridge lines” that correspond to actin filament bundles and allow us to quantitate the number of filaments per cell."}, "[2]": {"target": "Tpm3.1 (Homo sapiens, UniProt P06753)", "sequence (P06753 1-248 isoform P06753-2)": "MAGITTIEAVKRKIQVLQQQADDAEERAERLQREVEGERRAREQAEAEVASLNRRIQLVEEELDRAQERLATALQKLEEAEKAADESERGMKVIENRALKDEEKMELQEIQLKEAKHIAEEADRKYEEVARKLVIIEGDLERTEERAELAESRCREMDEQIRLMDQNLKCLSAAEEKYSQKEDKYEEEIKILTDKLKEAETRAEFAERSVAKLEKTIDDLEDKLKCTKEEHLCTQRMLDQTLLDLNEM", "assay": "Cell free actin co-sedimentation assay", "assay_type": "binding", "settings": "50 μM compound, 3 μM F-actin", "description": "(§1) FIG. 3: Impact of compound 1001 on the polymerization of tropomyosin and its subsequent association with actin. Increasing concentrations of (A) cytoskeletal Tpm3.1 or (B) muscle alpha-fast Tm (0.3-4.0 μM) were pre-incubated with 1% (v/v) DMSO (vehicle control) or 50 μM ATM-1001 prior to combining with 3 μM F-actin. The Tm/F-actin mixture was sedimented and the ratio of tropomyosin:actin in the pellet, normalized to the ratio that occurs at tropomyosin saturation, was plotted against the concentration of unbound tropomyosin in the supernatant.\n(§2) Cell free actin co-sedimentation assays were preformed to analyze the impact of compound 1001 on the polymerization of tropomyosin and subsequent association with actin. The impact of compound 1001 on Tpm3.1 binding was compared to the striated muscle isoform, alpha-fast Tm, which has an unrelated C-terminus."}, "[3]": {"target": "alpha-fast Tm (Homo sapiens, UniProt P09493)", "sequence (P09493 whole entry)": "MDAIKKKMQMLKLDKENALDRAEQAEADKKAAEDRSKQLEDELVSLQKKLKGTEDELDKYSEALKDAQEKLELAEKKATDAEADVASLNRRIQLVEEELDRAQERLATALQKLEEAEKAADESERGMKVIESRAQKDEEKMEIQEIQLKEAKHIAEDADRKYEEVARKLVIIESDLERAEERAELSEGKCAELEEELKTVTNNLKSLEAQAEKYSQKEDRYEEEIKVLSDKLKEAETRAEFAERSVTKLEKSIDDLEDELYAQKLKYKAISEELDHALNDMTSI", "assay": "Cell free actin co-sedimentation assay", "assay_type": "binding", "settings": "50 μM compound, 3 μM F-actin", "description": "as §1, §2"}, "[4]": {"system": "Skeletal myosin II", "assay": "Actin-activated myosin II ATPase activity", "assay_type": "biochemical", "settings": "50 μM, absence of Tpm3.1", "description": "FIG. 4: Effect of anti-tropomyosin compounds on actin-activated myosin II ATPase activity. Skeletal myosin II (30-60 nM) was incubated with 1% (v/v) DMSO or 50 μM of Blebbistatin, TR100 or compound 1001 for 5 min prior to mixing with 3 μM F-actin. Reactions were initiated with 1 mM ATP and inorganic phosphate release was detected spectrophotometrically. Data represents mean±SEM, for n=2-4 independent repeats. **P-value, 0.001<0.01.\nTo exclude an off-target activity, the impact of compound 1001 and TR100 (another small molecule with anti-tropomyosin activity) on myosin II ATPase activity was evaluated in the absence of Tpm3.1. The small molecule blebbistatin was included as a positive control known to inhibit myosin II ATPase activity. Blebbistatin acts by binding to the myosin-ADP-Pi complex and slowing the release of inorganic phosphate (Kovacs et al., 2004). Myosin II was pre-incubated with 50 μM of blebbistatin, TR100 or 1001 prior to mixing with F-actin. […] Compound 1001 had no effect on myosin ATPase activity at equivalent concentrations to that of TR100 (FIG. 4)."}, "[5]": {"system": "A375 melanoma xenograft", "assay": "A375 melanoma flank xenograft model", "assay_type": "in vivo", "settings": "IV 60 mg/kg in 30% (w/v) Captisol daily for 16 days, mice", "description": "FIG. 5: Effect of compound 1001 on tumour growth in vivo. Compound 1001 was administered IV at 60 mg/kg for 16 days in a flank xenograft model of melanoma (A375). Tumour volume was measured every 2-3 days. **p<0.01, ***P<0.001.\nIn vivo efficacy studies for compound 1001 were conducted using an A375 melanoma xenograft model in Foxn-1 nu/nu athymic mice. The human melanoma cell line A375 (sourced from American Type Culture Collection (ATCC), USA) was used for developing the flank xenograft model. Briefly, five million cells were injected subcutaneously in the right flank region of the animal. When the tumors reached 130-150 mm^3 the animals were randomized into two groups, each group with 8 animals in them, so that the average tumor volume of all the groups was same.\nCompound 1001 was delivered intravenously (IV) at 60 mg/kg in a 30% (w/v) Captisol (cyclodextrin-containing) formulation daily for 16 days. The control group was dosed with the Captisol vehicle alone."}, "[6]": {"system": "PC3 prostate cancer cells", "assay": "Anti-proliferative activity, cell-titre luminescent viability assay", "assay_type": "cell-based", "settings": "72 hours exposure", "description": "(§3) The ability of compounds 1001-1018 and 1037-1039 to inhibit the proliferation of cancer cells representative of neuroblastoma, melanoma, prostate cancer, colorectal cancer, non-small cell lung carcinoma, and triple negative breast cancer was assessed (Table 1).\n(§4) Briefly, a pre-determined number of cells as calculated from cell growth assays for each of the cell lines employed were seeded into their respective culture medium (using ATCC culture parameters—http://www.atcc.org) and cultured for 24 hours at 37° C. and 5% CO2 in 96-well culture plates. Once attached, each cell line was then exposed to increasing concentrations of each respective analogue (0.03, 0.3, 3 and 30 μM for compounds 1001-13 and 1015-18; 0.1, 0.3, 1, 3, 10 and 30 μM for compounds 1014 and 1037-39), cultured for a further 72 hours and exposed to cell-titre luminescent reagent (100 μL/well) for a further 30 minutes) to measure cell viability. Luminescence was captured using an EnVision multilabel reader and the data for each analogue concentration compared against no treatment control. For compounds 1001-13 and 1015-18, semi-log plots of Percent of Control versus concentration were prepared and IC50 determined using linear regression analysis. For compounds 1014 and 1037-39, cell viability was normalized to control (vehicle alone) and dose-response curves, and half maximal effective concentration (EC50) values were determined using Graph Pad Prism 6 (nonlinear regression sigmoidal dose-response variable slope)."}, "[7]": {"system": "DU145 prostate cancer cells", "assay": "Anti-proliferative activity, cell-titre luminescent viability assay", "assay_type": "cell-based", "settings": "Homo sapiens, DU-145, 72 hours exposure", "description": "as §3, §4"}, "[8]": {"system": "A549 lung (NSLC) cancer cells", "assay": "Anti-proliferative activity, cell-titre luminescent viability assay", "assay_type": "cell-based", "settings": "Homo sapiens, 72 hours exposure", "description": "as §3, §4"}, "[9]": {"system": "MDA-MB-231 breast cancer cells", "assay": "Anti-proliferative activity, cell-titre luminescent viability assay", "assay_type": "cell-based", "settings": "Homo sapiens, 72 hours exposure", "description": "as §3, §4"}, "[10]": {"system": "SK-Mel-28 melanoma cells", "assay": "Anti-proliferative activity, cell-titre luminescent viability assay", "assay_type": "cell-based", "settings": "Homo sapiens, 72 hours exposure", "description": "as §3, §4"}}}
{"smiles": "CN(C)CCCn1c2ccccc2c2cc(C(=O)N3CCN(CCc4ccccc4)CC3)ccc21", "note": "[Compound 1001, (9-(3-(dimethylamino)propyl)-9H-carbazol-3-yl)(4-phenethylpiperazin-1-yl)methanone]", "values": [{"measurement": "disruption of the actin cytoskeleton", "setting": "[1]", "result": "strong on-target, dose-dependent profile"}, {"measurement": "polymerization and association of Tpm3.1 with actin", "setting": "[2]", "result": "profoundly inhibited"}, {"measurement": "binding affinity and cooperativity of alpha-fast Tm for F-actin", "setting": "[3]", "result": "not affected"}, {"measurement": "effect on actin-activated myosin II ATPase activity", "setting": "[4]", "result": "no effect"}, {"measurement": "reduction in melanoma tumor growth", "setting": "[5]", "result": "~40", "unit": "%"}, {"measurement": "tolerance of treatment", "setting": "[5]", "result": "well tolerated"}, {"measurement": "IC50", "setting": "[6]", "result": 5.5, "unit": "µM"}, {"measurement": "IC50", "setting": "[7]", "result": "> 30", "unit": "µM"}, {"measurement": "IC50", "setting": "[8]", "result": 8.5, "unit": "µM"}, {"measurement": "IC50", "setting": "[9]", "result": 4.4, "unit": "µM"}, {"measurement": "IC50", "setting": "[10]", "result": 2.3, "unit": "µM"}]}
